The results in this text go back to US20130059793A1, “EGF RECEPTOR MIMICKING PEPTIDES” (BOARD OF REGENTS, THE UNIVERSITY OF TEXAS SYSTEM, priority 2010, published 2013).

Experiment [1] can be described thus: Nuclear magnetic resonance (NMR)-spectroscopy interactions. The format is binding.
Experiment [2] has as its system EF43.fgf-4-derived tumors. Put plainly: Treatment of tumor-bearing mice with peptides and peptidomimetics, tumor volume. The format is in vivo. As to conditions: at the end of two weeks; Balb/c mice, EF43.fgf-4 tumors; 750 μg/mouse/dose for 5 days; mean±SEM. The text has this: FIGS. 5A-B: CVRAC-targeted phage homes to tumor. (FIG. 5A) Targeting tumors versus control organs. […] An anti-phage antibody was used for staining H&E staining, with the corresponding fluorescence-based immunostaining, are shown in tumors (FIG. 5A). Tumor-bearing mice received CVRAC phage, CVAAC phage, or insertless control phage as indicated. Cohorts of tumor-bearing mice (n=5 mice/group) were used. A representative experiment is shown. Scale bar, 100 μm. (FIG. 5B) Treatment of tumor-bearing mice with peptides and peptidomimetics. Balb/c mice bearing EF43.fgf-4-derived tumors were divided into size-matched cohorts (n=7 mice/group); individual tumor volumes are represented before (black circles) and after (white circles). Peptides and peptidomimetics were administered at 750 μg/mouse/dose for 5 days. Shown are mean tumor volumes±SEM.
Selective phage homing to tumors was evaluated as described (Hajitou et al., 2006; Arap et al., 1998). […] Each cohort of mice (n=3 per experiment) with size-matched tumors received a set of test and control phage clones. After 6 h, tumor-bearing mice were perfused through the heart with 20 ml of PBS containing 4% paraformaldehyde (PFA). […] For experimental therapy, Balb/c mice bearing EF43.fgf-4-derived tumors were established, and tumor volumes were determined as described (Arap et al., 1998; Hajitou et al., 2006; Ciardiello et al., 1999). […]

Experiment [3] concerns the target binding of TGFα to the EGFR (Homo sapiens, UniProt P01135). Put plainly: Displacement of TGFα from immobilized EGFR (FIG. 6B). As to conditions: increasing molar concentrations. The text has this: (§1) The EGFR was coated onto 96-well plates at decreasing concentrations. […] D(CAAVC (SEQ ID NO:8)) was used as a negative peptidomimetic control at the same concentrations (circles). […] Bars represent mean±SEM.
(§2) Decreasing molar concentrations of EGFR were immobilized in vitro, after which the native ligand (EGF or TGFα) was used to establish the baseline for the binding of EGF to the EGFR, or of TGFα to the EGFR.

For a further experiment, the system named is HN5 tumor cells. Put plainly: Cell viability/proliferation, MTT assay, HN5. Type of experiment: cell-based, human. Set-up: cell proliferation / viability: dose or concentration left out as unconfirmed. On the procedure: (§3) A representative experiment is depicted. […] Bars represent mean±SEM. […] (FIG. 4C) Effect of the synthetic peptides on HN5 tumor cells. […] Viability in the absence of peptide was set to 100%. […] Bars represent mean±SEM. […] Receptors were immunoprecipitated with antibodies against phosphorylated (p) pEGFR and were immunoblotted with anti-phosphotyrosine IgG.
Tumor cell lines HN5, UMSCC 10A, GEO and EF43.fgf-4 were culture in standard conditions. Viability was assessed by MTT assays (Sigma) as described (Cardó-Vila et al., 2003). […] Samples were read at 570 nm.
Tumor cell lines HN5, UMSCC 10A, GEO and EF43.fgf-4 were maintained in high-glucose DMEM, supplemented with 10% heat-inactivated fetal bovine serum, 20 mM HEPES (pH 7.4), 100 IU/ml penicillin, 100 μg/ml streptomycin, and 4 mM glutamine at 5% CO2 at 37° C. EF43.fgf-4 were grown in G418 as described (Hajitou et al., 2006).

The next experiment concerns EGFR. The experiment can be described thus: EGF-induced EGFR autophosphorylation (immunoprecipitation, anti-phosphotyrosine blot). Type of experiment: cell-based, human. The following applies: HN5 tumor cells, EGF 15 min, FIG. 4E.
Description: as §3

In experiment [4] the test system is polyclonal anti-CVRAC antibodies. Put plainly: ELISA recognition of peptides by polyclonal anti-CVRAC antibodies (FIG. 4B). The format is binding, rabbit.
Description: as §3
Rabbits were immunized with KLH-conjugated CVRAC and a purified antibody was obtained. […] The capacity of rabbit IgG against CVRAC to recognize CVRAC, D(CARVC), and EGFR was measured by ELISA.
(§4) The EGFR served as an immobilized positive control, and BSA or control peptides (CVAAC) served as immobilized negative controls.
In general terms: An ELISA detects its analyte on a solid surface through an enzyme-linked reagent.

In experiment [5] the target is binding of EGF to the EGFR (Homo sapiens, UniProt P01133). The experiment can be described thus: Displacement of EGF from immobilized EGFR (FIG. 6A). As to conditions: D(CARVC) from 30 to 1,000 mM, cetuximab 12 nM positive control.
Chain of binding of EGF to the EGFR (P01133 971-1023 limits assumed): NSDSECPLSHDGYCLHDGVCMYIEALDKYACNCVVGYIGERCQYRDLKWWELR
Description: as §1, §2

A further experiment relates to AKT. Put plainly: EGF-induced phosphorylation of AKT in HN5 cells. The format is cell-based. As to conditions: human HN5 head and neck cells. The text has this:
(§5) To dissect the downstream signal transduction cascade in this setting, proliferative, survival, and migratory pathways were examined.

The next experiment relates to ERK. The experiment can be described thus: EGF-induced phosphorylation of ERK in HN5 cells. The following applies: human HN5 head and neck cells. The format is cell-based.
Description: as §5

Another experiment relates to p38. Put plainly: EGF-induced phosphorylation of p38 in HN5 cells. The format is cell-based. The following applies: human HN5 head and neck cells.
Description: as §5

For the next experiment, the system named is cetuximab. Put plainly: Binding of synthetic peptides to cetuximab (ELISA-based, FIG. 3A, FIG. 4B). As to conditions: FIG. 4B (peptides plated at 10 μg/ml).
Description: BSA served as an additional negative control, and the EGFR, as a positive control. […] Insertless phage served as a negative control. […] Bars represent mean±SEM.
as §3, §4

Chain of binding of TGFα to the EGFR (P01135 40-89 limits assumed): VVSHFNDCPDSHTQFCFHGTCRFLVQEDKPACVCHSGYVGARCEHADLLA

On to D(CARVC), for which, in experiment [1], the “interactions by NMR-spectroscopy” value was “Low-affinity interactions (micromolar range)”. The tumor volume in experiment [2] is 550±50 mm^3. Also, the “displacement of TGFα from the EGFR” value in experiment [3] is recorded as “concentration-dependent displacement”. For the same substance, the “cell proliferation / viability” value in the experiment on HN5 tumor cells (HN5, MTT, 120 h, increasing concentrations, FIG. 4C) is “proliferated much less”. For the same substance, the “activity on an equimolar basis compared with CVRAC” value in the experiment with HN5 tumor cells (prolonged (120 h) functional assay) is “more potent”. The “EGF-induced tyrosine phosphorylation of the EGFR” value with EGFR was “effectively inhibited”. The “recognition by polyclonal anti-CVRAC antibodies” value in [4] is recorded as “recognized”. Also, in experiment [5], the “displacement of EGF from the EGFR” value is reported as “concentration-dependent effect”. In the experiment on AKT, the “EGF-induced phosphorylation of AKT” value is “inhibit”. Besides, the “EGF-induced phosphorylation of ERK” value with ERK is recorded as “inhibit”. In addition, in the experiment on p38, the “EGF-induced phosphorylation of p38” value is recorded as “not”. Besides, the “binding of synthetic peptide to cetuximab” value with cetuximab is recorded as “retained binding activity”.
